Source: US10336762B2 (priority 2017, dated 2019)

Legend:
[1] = test system: TNFα; experiment: cells; format: cell-based, human; settings: Homo sapiens, Monocyte, LPS-stimulated human monocytes, TNFα content; read-out: EC50 TNF
[2] = biological target: IRAK4 enzyme (Homo sapiens (Human), UniProt Q9NWZ3); experiment: biochemical; format: biochemical; settings: IRAK4 enzyme, TR-FRET, 500 μM ATP
Sequence of IRAK4 enzyme (Q9NWZ3 whole entry): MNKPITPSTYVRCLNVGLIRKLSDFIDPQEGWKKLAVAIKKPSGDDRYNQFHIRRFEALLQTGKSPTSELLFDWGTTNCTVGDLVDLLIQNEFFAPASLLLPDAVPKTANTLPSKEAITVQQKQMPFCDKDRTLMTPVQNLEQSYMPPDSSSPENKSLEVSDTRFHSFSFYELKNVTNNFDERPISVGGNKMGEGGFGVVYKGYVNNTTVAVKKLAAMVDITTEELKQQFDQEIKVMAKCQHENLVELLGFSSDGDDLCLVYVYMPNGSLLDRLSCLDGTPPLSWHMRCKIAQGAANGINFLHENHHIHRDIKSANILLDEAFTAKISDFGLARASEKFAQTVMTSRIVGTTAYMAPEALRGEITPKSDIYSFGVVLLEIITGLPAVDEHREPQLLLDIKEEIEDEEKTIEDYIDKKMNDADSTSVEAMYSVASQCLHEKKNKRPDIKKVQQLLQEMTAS

| Structure (SMILES) | EC50 [1] [nM] | IC50 [2] [nM] |
| --- | --- | --- |
| CNC(=O)[C@H](C)Nc1cc(-c2ccc3cc(C#N)cnn23)ncc1C(=O)NC[C@@H](F)C(C)(C)O [Example 108, 6-(3-cyanopyrrolo[1,2-b]pyridazin-7-yl)-N-((R)-2-fluoro-3-hydroxy-3-methylbutyl)-4-(((S)-1-(methylamino)-1-oxopropan-2-yl)amino) nicotinamide] | > 10000 | 88 |
| CC(C)(O)[C@H](F)CNC(=O)c1cnc(-c2ccc3cc(C#N)cnn23)cc1N[C@H]1CCN(C2COC2)C1 [Example 110, 6-(3-cyanopyrrolo[1,2-b]pyridazin-7-yl)-N-((R)-2-fluoro-3-hydroxy-3-methylbutyl)-4-(((S)-1-(oxetan-3-yl)pyrrolidin-3-yl)amino) nicotinamide] | 191 | 4 |
| COCC1(Nc2cc(-c3ccc4cc(C#N)cnn34)ncc2C(=O)NC[C@@H](F)C(C)(C)O)CC1 [Example 112, (R)-6-(3-cyano-pyrrolo[1,2-b]pyridazin-7-yl)-N-(2-fluoro-3-hydroxy-3-methylbutyl)-4-((1-(methoxymethyl)cyclopropyl)amino)nicotinanide] | 399 | 4 |
| CC(C)(O)[C@H](F)CNC(=O)c1cnc(-c2ccc3cc(C#N)cnn23)cc1N[C@H]1C[C@@H]2C[C@H]1CN2S(C)(=O)=O [Example 113, 6-(3-cyanopyrrolo[1,2-b]pyridazin-7-yl)-N-((R)-2-fluoro-3-hydroxy-3-methylbutyl)-4-(((1S,4S,5S)-2-(methylsulfonyl)-2-azabicyclo[2.2.1]heptan-5-yl)amino)nicotinamide] | 3670 | 22 |
| CN1CCC(Nc2cc(-c3ccc4cc(C#N)cnn34)ncc2C(=O)NC[C@@H](F)C(C)(C)O)CC1 [Example 114, (R)-6-(3-cyanopyrrolo[1,2-b]pyridazin-7-yl)-N-(2-fluoro-3-hydroxy-3-methylbutyl)-4-((1-methylpiperidin-4-yl)amino)nicotinamide] | 177 | 4 |
| CC(C)(O)[C@H](F)CNC(=O)c1cnc(-c2ccc3cc(C#N)cnn23)cc1NC1CCN(C2CC2)CC1 [Example 115, (R)-6-(3-cyanopyrrolo[1,2-b]pyridazin-7-yl)-4-((1-cyclopropylpiperidin-4-yl)amino)-N-(2-fluoro-3-hydroxy-3-methylbutyl)nicotinamide] | 196 | 4 |
| CC(C)Nc1cc(-c2ccc3cc(C#N)cnn23)ncc1C(=O)NCC(F)(F)C(C)(C)O [Example 116, 6-(3-cyanopyrrolo[1,2-b]pyridazin-7-yl)-N-(2,2-difluoro-3-hydroxy-3-methylbutyl)-4-(isopropylamino) nicotinamide] | 98 | < 1 |
| CC(C)(O)[C@H](F)CNC(=O)c1cnc(-c2ccc3cc(C#N)cnn23)cc1NC1CCC1 [Example 117, (R)-6-(3-cyanopyrrolo[1,2-b]pyridazin-7-yl)-4-(cyclobutyl-amino)-N-(2-fluoro-3-hydroxy-3-methylbutyl) nicotinamide] | 47 | < 1 |
| CC1(Nc2cc(-c3ccc4cc(C#N)cnn34)ncc2C(=O)NC[C@@H](F)C(C)(C)O)CC1 [Example 118, (R)-6-(3-cyanopyrrolo[1,2-b]pyridazin-7-yl)-N-(2-fluoro-3-hydroxy-3-methylbutyl)-4-((1-methylcyclopropyl)amino) nicotinamide] | 25 | < 1 |
| COCCn1cc(Nc2cc(-c3ccc4cc(C#N)cnn34)ncc2C(=O)NC[C@@H](F)C(C)(C)O)cn1 [Example 119, (R)-6-(3-cyanopyrrolo[1,2-b]pyridazin-7-yl)-N-(2-fluoro-3-hydroxy-3-methylbutyl)-4-((1-(2-methoxyethyl)-1H-pyrazol-4-yl)amino) nicotinamide] | 32 | < 1 |
| CC(C)Nc1cc(-c2ccc3cc(C#N)cnn23)ncc1C(=O)N[C@H]1C[C@@](C)(O)C1 [Example 120, 6-(3-cyanopyrrolo[1,2-b]pyridazin-7-yl)-N-((1s,3s)-3-hydroxy-3-methylcyclobutyl)-4-(isopropylamino) nicotinamide] | 430 | 8 |
| CC(C)Nc1cc(-c2ccc3cc(C#N)cnn23)ncc1C(=O)NCC1CCS(=O)(=O)CC1 [Example 121, 6-(3-cyanopyrrolo[1,2-b]pyridazin-7-yl)-N-((1,1-dioxidotetrahydro-2H-thiopyran-4-yl)methyl)-4-(isopropylamino) nicotinamide] | 365 | 7 |
| CC(C)Nc1cc(-c2ccc3cc(C#N)cnn23)ncc1C(=O)NCC1(O)CCS(=O)(=O)C1 (stereo not shown) [Example 122, 6-(3-cyanopyrrolo[1,2-b]pyridazin-7-yl)-N-((3-hydroxy-1,1-dioxidotetrahydrothiophen-3-yl)methyl)-4-(isopropylamino)nicotinamide] | 867 | 17 |
| CC(C)Nc1cc(-c2ccc3cc(C#N)cnn23)ncc1C(=O)NC1CCS(=O)(=O)C1 (stereo not shown) [Example 123, 6-(3-cyanopyrrolo[1,2-b]pyridazin-7-yl)-N-(1,1-dioxidotetrahydrothiophen-3-yl)-4-(isopropylamino) nicotinamide] | 421 | 6 |
| CC(=O)N[C@H]1C[C@H](NC(=O)c2cnc(-c3ccc4cc(C#N)cnn34)cc2NC(C)C)C1 [Example 124, N-((1r,3r)-3-acetamido-cyclobutyl)-6-(3-cyano-pyrrolo[1,2-b]pyridazin-7-yl)-4-(isopropylamino) nicotinamide] | 182 | 3 |
| CC(C)Nc1cc(-c2ccc3cc(C#N)cnn23)ncc1C(=O)N[C@H]1CC[C@H](NC(=O)C2CC2)CC1 [Example 125, 6-(3-cyanopyrrolo[1,2-b]pyridazin-7-yl)-N-((1r,4r)-4-(cyclopropane-carboxamido)cyclohexyl)-4-(isopropyl-amino)nicotinamide] | 114 | 1 |
| CC(C)Nc1cc(-c2ccc3cc(C#N)cnn23)ncc1C(=O)N[C@H]1CC[C@H](NC(=O)N2CCOCC2)CC1 [Example 126, N-((1r,4r)-4-(6-(3-cyano-pyrrolo[1,2-b]pyridazin-7-yl)-4-(isopropylamino)nicotinamido)cyclohexyl) morpholine-4-carboxamide] | 92 | 1 |
| CC(C)Nc1cc(-c2ccc3cc(C#N)cnn23)ncc1C(=O)N[C@H]1CC[C@H](NC(=O)C(F)(F)F)CC1 [Example 127, 6-(3-cyanopyrrolo[1,2-b]pyridazin-7-yl)-4-(isopropyl-amino)-N-((1r,4r)-4-(2,2,2-trifluoroacetamido)cyclohexyl)nicotinamide] | 112 | < 1 |
| CCn1cnc(Nc2cc(-c3ccc4cc(C#N)cnn34)ncc2C(=O)NC[C@@H](F)C(C)(C)O)n1 [Example 128, (R)-6-(3-cyanopyrrolo[1,2-b]pyridazin-7-yl)-4-((1-ethyl-1H-1,2,4-triazol-3-yl)amino)-N-(2-fluoro-3-hydroxy-3-methylbutyl)nicotinamide] | 141 | 1 |
| CC(C)(O)[C@H](F)CNC(=O)c1cnc(-c2ccc3cc(C#N)cnn23)cc1Nc1cnn2c1CCCC2 [Example 129, (R)-6-(3-cyanopyrrolo[1,2-b]pyridazin-7-yl)-N-(2-fluoro-3-hydroxy-3-methylbutyl)-4-((4,5,6,7-tetrahydropyrazolo[1,5-a]pyridin-3-yl)amino)nicotinamide] | 377 | 6 |
